In ChEMBL document CHEMBL4706559, “New indolylarylsulfone non-nucleoside reverse transcriptase inhibitors show low nanomolar inhibition of single and double HIV-1 mutant strains” (Eur J Med Chem, 2020):

How the values were obtained:
[1] = system: Human immunodeficiency virus 1; assay: Antiviral activity against HIV1 harboring RT K103N/Y181C double mutant infected in human MT4 cells assessed as protection against virus-induced cytopathic effect by MTT assay; type: functional, organism-based; settings: Human immunodeficiency virus 1, MT4
[2] = system: Human immunodeficiency virus 1; assay: Resistance index, ratio of EC50 for antiviral activity against HIV1 harboring RT Y188L mutant infected in human MT4 cells to EC50 for antiviral activity against HIV1 NL4-3 infected in human MT4 cells; type: functional
[3] = system: Human immunodeficiency virus 1; assay: Antiviral activity against HIV-1 NL4-3 infected in human MT-4 cells assessed as virus induced cytopathic effect by MTT assay; type: functional, organism-based; settings: Human immunodeficiency virus 1, NL4-3, MT4
[4] = system: Human immunodeficiency virus 1; assay: Antiviral activity against HIV1 harboring RT K103N mutant infected in human MT4 cells assessed as protection against virus-induced cytopathic effect by MTT assay; type: functional, organism-based; settings: Human immunodeficiency virus 1, MT4
[5] = target: Human immunodeficiency virus type 1 reverse transcriptase (Human immunodeficiency virus 1, UniProt Q72547, K103N); assay: Inhibition of RNA-dependent DNA polymerase activity of recombinant HIV-1 p66/p51 reverse transcriptase K103N mutant assessed as inhibition of [3H]dTTP incorporation using poly(rA)/oligo(dT) as templates incubated for 15 mins by MicroBeta scintillation counting method
[6] = system: Human immunodeficiency virus 1; assay: Antiviral activity against HIV1 harboring RT Y188L mutant infected in human MT4 cells assessed as protection against virus-induced cytopathic effect by MTT assay; type: functional, organism-based; settings: Human immunodeficiency virus 1, MT4
[7] = Cytotoxicity against human MT-4 cells assessed as reduction in cell viability by MTT assay; type: cell-based, MT4
[8] = target: Human immunodeficiency virus type 1 reverse transcriptase (Human immunodeficiency virus 1, UniProt Q72547); assay: Inhibition of RNA-dependent DNA polymerase activity of wild type recombinant HIV-1 His-tagged p66/p51 reverse transcriptase assessed as inhibition of [3H]dTTP incorporation using poly(rA)/oligo(dT) as templates incubated for 15 mins by MicroBeta scintillation counting method
[9] = Inhibition of RNA-dependent DNA polymerase activity of recombinant HIV-1 p66/p51 reverse transcriptase K103N/Y181C mutant assessed as inhibition of [3H]dTTP incorporation using poly(rA)/oligo(dT) as templates incubated for 15 mins by MicroBeta scintillation counting method; design: species or system Human immunodeficiency virus 1
[10] = system: Human immunodeficiency virus 1; assay: Resistance index, ratio of EC50 for antiviral activity against HIV1 harboring RT K103N/Y181C double mutant infected in human MT4 cells to EC50 for antiviral activity against HIV1 NL4-3 infected in human MT4 cells; type: functional
[11] = Inhibition of RNA-dependent DNA polymerase activity of recombinant HIV-1 p66/p51 reverse transcriptase Y188L mutant assessed as inhibition of [3H]dTTP incorporation using poly(rA)/oligo(dT) as templates incubated for 15 mins by MicroBeta scintillation counting method; design: species or system Human immunodeficiency virus 1
[12] = Selectivity ratio of CC50 for human MT4 cells to EC50 for antiviral activity against HIV-1 NL4-3 infected in human MT4 cells; type: toxicity, cell-based; settings: read-out: Ratio CC50/EC50
[13] = system: Human immunodeficiency virus 1; assay: Antiviral activity against HIV1 harboring RT Y181C mutant infected in human MT4 cells assessed as protection against virus-induced cytopathic effect by MTT assay; type: functional, organism-based; settings: Human immunodeficiency virus 1, MT4
[14] = system: Human immunodeficiency virus 1; assay: Resistance index, ratio of EC50 for antiviral activity against HIV1 harboring RT Y181C mutant infected in human MT4 cells to EC50 for antiviral activity against HIV1 NL4-3 infected in human MT4 cells; type: functional

## Cc1cc(C)cc(S(=O)(=O)c2c(C(=O)NC(C)C(N)=O)[nH]c3ccc(Cl)cc23)c1 (centres undefined)
[1]
  EC50: 700 nM

## Cc1cc(C)cc(S(=O)(=O)c2c(C(=O)NCc3ccc(O)cc3)[nH]c3ccc(Cl)cc23)c1
[1]
  EC50: 704 nM
[2]
  Ratio EC50: >944
[3]
  EC50: < 0.7 nM
[4]
  EC50: < 0.7 nM
[5]
  IC50: 45 nM
[6]
  EC50: 661 nM
[7]
  CC50: 6250 nM
[8]
  IC50: 61 nM
[9]
  IC50: 628 nM
[10]
  Ratio EC50: >1006
[11]
  IC50: 50 nM
[12]
  selectivity ratio: > 8930
[13]
  EC50: < 0.7 nM

## Cc1cc(C)cc(S(=O)(=O)c2c(C(=O)Nc3cccc(O)c3)[nH]c3ccc(Cl)cc23)c1
[1]
  EC50: 6090 nM
[2]
  Ratio EC50: >650
[3]
  EC50: < 0.7 nM
[4]
  EC50: < 0.7 nM
[6]
  EC50: 455 nM
[14]
  Ratio EC50: >62
[7]
  CC50: 24600 nM
[10]
  Ratio EC50: >8698
[12]
  selectivity ratio: > 35200
[13]
  EC50: 44 nM

## Cc1cc(C)cc(S(=O)(=O)c2c(C(=O)NCc3cc(O)ncn3)[nH]c3ccc(Cl)cc23)c1
[1]
  EC50: 14300 nM
[2]
  Ratio EC50: >151
[3]
  EC50: < 0.7 nM
[4]
  EC50: < 0.7 nM
[6]
  EC50: 106 nM
[7]
  CC50: > 53100 nM
[10]
  Ratio EC50: >20385
[12]
  selectivity ratio: > 75800
[13]
  EC50: 0.7 nM

## Cc1cc(C)cc(S(=O)(=O)c2c(C(=O)NC(C)c3ccccc3O)[nH]c3ccc(Cl)cc23)c1 (centres undefined)
[1]
  EC50: 662 nM
[2]
  Ratio EC50: >270
[3]
  EC50: < 0.7 nM
[4]
  EC50: < 0.7 nM
[6]
  EC50: 190 nM
[14]
  Ratio EC50: >27
[7]
  CC50: 21800 nM
[10]
  Ratio EC50: >946
[12]
  selectivity ratio: 31100
[13]
  EC50: 19 nM

## NC(=O)c1[nH]c2ccc(Cl)cc2c1S(=O)(=O)c1ccccc1 [L-737126]
[1]
  EC50: 8000 nM

## COc1cc(CNC(=O)c2[nH]c3ccc(Cl)cc3c2S(=O)(=O)c2cc(C)cc(C)c2)ccc1O
[1]
  EC50: 1120 nM
[2]
  Ratio EC50: 367
[3]
  EC50: < 0.6 nM
[4]
  EC50: < 0.6 nM
[6]
  EC50: 220 nM
[14]
  Ratio EC50: 3.3
[7]
  CC50: 28700 nM
[10]
  Ratio EC50: 1871
[12]
  selectivity ratio: > 47800
[13]
  EC50: 2 nM

## Cc1cc(C)cc(S(=O)(=O)c2c(C(=O)NCc3ccc(O)c(O)c3)[nH]c3ccc(Cl)cc23)c1
[1]
  EC50: 3240 nM
[2]
  Ratio EC50: >100
[3]
  EC50: < 0.7 nM
[4]
  EC50: < 0.7 nM
[6]
  EC50: 70 nM
[14]
  Ratio EC50: >5.9
[7]
  CC50: 18300 nM
[10]
  Ratio EC50: >4624
[12]
  selectivity ratio: > 26200
[13]
  EC50: 4.1 nM

## Cc1cc(C)cc(S(=O)(=O)c2c(C(=O)NCN3CCCC3)[nH]c3ccc(Cl)cc23)c1
[1]
  EC50: 300 nM

## Cc1ccnc2c1NC(=O)c1cccnc1N2C1CC1 [NEVIRAPINE]
[1]
  EC50: > 3760 nM
[3]
  EC50: 112 nM
[4]
  EC50: > 3760 nM
[6]
  EC50: > 3760 nM
[7]
  CC50: > 18800 nM
[13]
  EC50: > 3760 nM

## Cc1cc(C)cc(S(=O)(=O)c2c(C(=O)Nc3ccccc3O)[nH]c3ccc(Cl)cc23)c1
[1]
  EC50: > 19700 nM
[2]
  Ratio EC50: >6881
[3]
  EC50: < 0.7 nM
[4]
  EC50: > 0.7 nM
[6]
  EC50: 4810 nM
[14]
  Ratio EC50: >28
[7]
  CC50: 19700 nM
[10]
  Ratio EC50: >28166
[12]
  selectivity ratio: > 28200
[13]
  EC50: 20 nM

## Cc1cc(C)cc(S(=O)(=O)c2c(C(=O)NC(C)c3cccc(O)c3)[nH]c3ccc(Cl)cc23)c1 (centres undefined)
[1]
  EC50: 600 nM
[2]
  Ratio EC50: 237
[3]
  EC50: < 0.7 nM
[4]
  EC50: < 0.7 nM
[6]
  EC50: 166 nM
[14]
  Ratio EC50: 14
[7]
  CC50: 16000 nM
[10]
  Ratio EC50: 857
[12]
  selectivity ratio: > 22800
[13]
  EC50: 10 nM

## Cc1cc(C)cc(S(=O)(=O)c2c(C(=O)NCc3cccc(O)c3)[nH]c3ccccc23)c1
[1]
  EC50: 1810 nM
[2]
  Ratio EC50: >1808
[3]
  EC50: < 0.7 nM
[4]
  EC50: < 0.7 nM
[6]
  EC50: 1270 nM
[14]
  Ratio EC50: >30
[7]
  CC50: > 5200 nM
[10]
  Ratio EC50: >2584
[12]
  selectivity ratio: > 3640
[13]
  EC50: 21 nM

## O=C1Nc2ccc(Cl)cc2[C@@](C#CC2CC2)(C(F)(F)F)O1 [EFAVIRENZ]
[1]
  EC50: > 317 nM
[7]
  CC50: > 15800 nM

## Cc1cc(C)cc(S(=O)(=O)c2c(C(=O)Nc3ccc(CO)cc3)[nH]c3ccc(Cl)cc23)c1
[1]
  EC50: 19500 nM
[3]
  EC50: < 0.7 nM
[4]
  EC50: < 0.7 nM
[14]
  Ratio EC50: >31
[7]
  CC50: 39600 nM
[10]
  Ratio EC50: >27904
[12]
  selectivity ratio: > 56600
[13]
  EC50: 22 nM

## Cc1cc(C)cc(S(=O)(=O)c2c(C(=O)Nc3ccc(O)cc3)[nH]c3ccc(Cl)cc23)c1
[1]
  EC50: 967 nM
[2]
  Ratio EC50: >1413
[3]
  EC50: < 0.7 nM
[4]
  EC50: < 0.7 nM
[5]
  IC50: 106 nM
[6]
  EC50: 989 nM
[7]
  CC50: 18100 nM
[8]
  IC50: 69 nM
[9]
  IC50: 375 nM
[10]
  Ratio EC50: >1381
[11]
  IC50: 81 nM
[12]
  selectivity ratio: > 25800
[13]
  EC50: < 0.7 nM

## Cc1cc(C#N)cc(C)c1Oc1nc(Nc2ccc(C#N)cc2)nc(N)c1Br [ETRAVIRINE]
[1]
  EC50: 4.6 nM
[3]
  EC50: 16.1 nM
[4]
  EC50: 0.7 nM
[6]
  EC50: 16 nM
[7]
  CC50: > 23000 nM
[9]
  IC50: 97 nM
[11]
  IC50: 164 nM
[13]
  EC50: 18 nM

## Cc1cc(C)cc(S(=O)(=O)c2c(C(=O)NCCc3ccccc3O)[nH]c3ccc(Cl)cc23)c1
[1]
  EC50: 331 nM
[2]
  Ratio EC50: >296
[3]
  EC50: < 0.7 nM
[4]
  EC50: < 0.7 nM
[6]
  EC50: 207 nM
[7]
  CC50: 23800 nM
[10]
  Ratio EC50: >473
[12]
  selectivity ratio: > 34000
[13]
  EC50: < 0.7 nM

## Cc1cc(C)cc(S(=O)(=O)c2c(C(N)=O)[nH]c3ccc(Cl)cc23)c1
[1]
  EC50: 650 nM

## Cc1cc(C)cc(S(=O)(=O)c2c(C(=O)NCc3ccc(CO)cc3)[nH]c3ccc(Cl)cc23)c1
[1]
  EC50: 3290 nM
[3]
  EC50: < 0.7 nM
[4]
  EC50: < 0.7 nM
[5]
  IC50: 79 nM
[14]
  Ratio EC50: >31
[7]
  CC50: 31100 nM
[8]
  IC50: 38 nM
[9]
  IC50: 188 nM
[10]
  Ratio EC50: >4703
[11]
  IC50: 178 nM
[12]
  selectivity ratio: > 44400
[13]
  EC50: 22 nM
